Key:
rats [1] = conditions: rat, in vivo
rats [2] = experiment: Flinches in rats after intraplantar injection of capsaicin; format: in vivo, rat

| Structure (SMILES) | reduction of induced pain effect (rats [1]) [%] | dose needed to decrease half of the number of flinches induced by the venom (rats [1]; sc) [mg/kg] | dose of maximal analgesic effect (rats [1]; sc) [mg/kg] | number of flinches (mean) after intraplantar capsaicin following BCTC conditioning (rats [2]; 40 mg/kg BCTC s.c. one hour before capsaicin, 4 minutes, p<0.05, n=6) | number of flinches (mean) after intraplantar capsaicin alone (rats [2]; 10 μg capsaicin intraplantar, 4 minutes observation, n=6) |
| --- | --- | --- | --- | --- | --- |
| CC(C)(C)c1ccc(NC(=O)N2CCN(c3ncccc3Cl)CC2)cc1 [BCTC, N-(4-Tertiarybutylphenyl)-4-(3-cholorphyridin-2-yl)tetrahydropyrazine-1(2H)-carbox-amide] | 79 | 10 to 40 | 40 | 4.2 | – |
| COc1cc(CNC(=O)CCCC/C=C/C(C)C)ccc1O [capsaicin] | – | – | – | – | 76.0 |

From patent publication US20100234454A1 (priority 2006, published 2010)
